Source: publication PMC11650361 (Archiv Der Pharmazie, 2024)
Where two headings read alike, the source gives them in different places.

Tests used:
human erythrocyte AChE = target: T1, human erythrocyte AChE (Homo sapiens, UniProt P22303); test: biochemical; type: biochemical; conditions: for IC50: human erythrocyte AChE, mean ± SEM, n = 3
T1 construct: purchased Sigma-Aldrich; Milamed, Perm, Russia (supplement); host or cells: human erythrocytes

equine serum BChE = target: T2, equine serum BChE (Equus caballus, UniProt P81908); test: biochemical; conditions: for IC50: equine serum BChE, mean ± SEM, n = 3
T2 construct: purchased Sigma-Aldrich; Milamed, Perm, Russia (supplement); host or cells: horse serum
T2 sequence (P81908 whole entry): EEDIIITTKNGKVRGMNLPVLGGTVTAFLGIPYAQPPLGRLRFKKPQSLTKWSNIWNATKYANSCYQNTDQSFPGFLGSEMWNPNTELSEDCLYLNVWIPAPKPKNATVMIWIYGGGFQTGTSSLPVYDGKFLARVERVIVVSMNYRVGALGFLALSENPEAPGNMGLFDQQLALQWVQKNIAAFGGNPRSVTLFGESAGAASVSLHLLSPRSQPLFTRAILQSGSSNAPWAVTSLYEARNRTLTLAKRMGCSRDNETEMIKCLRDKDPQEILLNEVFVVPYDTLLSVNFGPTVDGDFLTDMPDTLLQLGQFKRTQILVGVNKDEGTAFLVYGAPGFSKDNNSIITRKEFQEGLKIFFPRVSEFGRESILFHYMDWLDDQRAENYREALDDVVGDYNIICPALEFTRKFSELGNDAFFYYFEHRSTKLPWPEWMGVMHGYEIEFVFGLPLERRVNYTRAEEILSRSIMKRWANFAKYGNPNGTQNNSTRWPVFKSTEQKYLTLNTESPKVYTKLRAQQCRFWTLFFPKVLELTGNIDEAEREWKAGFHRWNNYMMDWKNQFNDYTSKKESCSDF

porcine liver CES [1] = test: In vitro CES inhibition (4-NPA substrate); type: biochemical; conditions: for CES inhibition, %: % inhibition at 20 μM, n.a. = not active
Protocol: The esterase profile of the synthesized conjugates was determined. This included an assessment of their inhibition of cholinergic targets AChE and BChE along with a structurally related enzyme CES (EC 3.1.1.1), which hydrolyzes numerous ester‐containing drugs and is considered as an off‐target for anti‐AD agents.^[ [9], [40] ^] Human erythrocyte AChE, equine serum BChE, and porcine liver CES were used.^[ [40], [41], [42] ^]
Initially, we used a single concentration of 20 µM for all compounds.
^a All experiments were carried out in accordance with the standard protocols approved by IPAС RAS. Human erythrocyte AChE, equine serum BChE were purchased from Milamed (Perm, Russia). Porcine liver CES, substrates, and reference compounds were from Sigma-Aldrich (St. Louis, MO, USA). The activity of enzymes was measured spectrophotometrically, as described in detail in ^[1] using ATCh iodide, BTCh iodide, and 4-NPA as substrates for AChE, BChE, and CES, respectively. Experimental conditions: K,Na-phosphate buffer (100 mM), 25 °С, pH 7.5 for AChE and BChE and pH 8.0 for CES assay. Measurements were carried out on a FLUOStar Optima microplate reader (BMG Labtech, Ortenberg, Germany). Test compounds were dissolved in DMSO; final concentration of solvent in the incubation mixture was 2% (v/v).

[2] = target: T3, PAS of Electrophorus electricus AChE (EeAChE) (Electrophorus electricus, UniProt O42275); type: binding; conditions: 20 µM compound concentration
T3 construct: purchased Sigma-Aldrich type VI-S; host or cells: electric eel tissue
T3 sequence (O42275 24-633): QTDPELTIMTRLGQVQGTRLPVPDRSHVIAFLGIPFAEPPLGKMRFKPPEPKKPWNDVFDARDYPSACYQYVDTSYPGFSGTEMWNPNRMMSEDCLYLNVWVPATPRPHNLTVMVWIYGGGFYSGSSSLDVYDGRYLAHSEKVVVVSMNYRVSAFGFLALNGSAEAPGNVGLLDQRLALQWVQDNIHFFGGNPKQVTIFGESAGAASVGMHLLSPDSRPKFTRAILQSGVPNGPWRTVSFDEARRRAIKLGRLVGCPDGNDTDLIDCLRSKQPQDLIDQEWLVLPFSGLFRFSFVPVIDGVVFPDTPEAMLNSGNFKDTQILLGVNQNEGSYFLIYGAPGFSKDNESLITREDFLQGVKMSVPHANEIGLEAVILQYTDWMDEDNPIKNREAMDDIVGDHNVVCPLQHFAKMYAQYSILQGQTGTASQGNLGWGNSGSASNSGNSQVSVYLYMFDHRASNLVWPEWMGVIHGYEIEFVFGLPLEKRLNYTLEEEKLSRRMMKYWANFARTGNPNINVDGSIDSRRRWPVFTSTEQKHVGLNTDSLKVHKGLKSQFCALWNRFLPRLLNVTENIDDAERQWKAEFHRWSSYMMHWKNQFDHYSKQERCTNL
Protocol: The ability of the test compounds to competitively displace propidium was evaluated by the fluorescence method,^[ [65] ^] as described in detail in Makhaeva et al.^[ [66] ^] […] After 15 min of incubation of the test compounds at a concentration of 20 μM with a 7 μM solution of EeAChE in 1 mM Tris‐HCl buffer, pH 8.0, 25°C, propidium iodide (final concentration 8 μM) was added. Then, the solutions were incubated for 15 min and the fluorescence spectrum was recorded (530 nm (excitation) and 600 nm (emission)). […] Measurements were performed in triplicate on a FLUOStar Optima microplate reader (BMG LabTech).
The 7 μM EeAChE was incubated with the test compound at a concentration of 20 μM in 1 mM Tris-HCl buffer pH 8.0, 25 °C, for 15 min. After that, propidium iodide was added at final concentration of 8 μM. The samples were incubated for 15 min and the fluorescence spectrum (530 nm (excitation) and 600 nm (emission)) was taken. […] The measurements were carried out in triplicate on a FLUOStar Optima microplate reader. The degree of propidium displacement (% displacement) from the PAS of EeAChE was calculated by formula (1):
% Displacement = 100 – (IFAChE+ Propidium + inhibitor / IFAChE + Propidium) × 100 (1),
where IFAChE + Propidium is the fluorescence intensity of the propidium associated with AChE in the absence of the test compound (taken as 100%), and IFAChE + Propidium + inhibitor is the fluorescence intensity of the propidium associated with AChE in the presence of the test compound.

β‐amyloid (1–42) (Aβ42) = β‐amyloid (1–42) (Aβ42) (Homo sapiens, UniProt P05067); test: Inhibition of Aβ42 self-aggregation (thioflavin T fluorescence); type: biochemical; conditions: Aβ42 50 µM, compound 100 µM; read-out: Inhibition of Aβ42 self‐aggregation, %
Sequence of β‐amyloid (1–42) (Aβ42) (P05067 672-713 limits assumed): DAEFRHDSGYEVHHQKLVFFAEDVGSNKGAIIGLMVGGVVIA
Protocol: Inhibition of Aβ42 self‐aggregation by test compounds was studied using the ThT fluorescence method^[ [67], [68] ^] with minor modifications as described in detail in Makhaeva et al.^[ [16] ^] Lyophilized hexamfluoroisopropanol‐pretreated Aβ42 (GenicBio Limited, 1 mg) was dissolved in DMSO to obtain a stable 500 μM solution. […] Myricetin and propidium iodide in the same concentration were used as references. […] Each assay was run in triplicate.
^c The inhibitory effect of the test compounds toward Aβ42 self-aggregation was determined using the thioflavin T (ThT) fluorescence method ^[5-7] with minor modifications as described in detail in ^[8]. Lyophilized HFIP-pretreated Aβ42 from BACHEM (Bubendorf, Switzerland) was used. […] Myricetin and propidium iodide were used as reference compounds (positive controls). Analyses were performed with a FLUOStar Optima microplate reader (LabTech, Ortenberg, Germany). The inhibition (%) of Aβ42 self-aggregation by the test compounds was calculated by the following equation: […]
where IFi and IFo are the fluorescence intensities obtained for Aβ42 in the presence and in the absence of inhibitor, respectively, after subtracting the fluorescence of respective blanks.

[3] = ABTS radical cation scavenging activity assay; conditions: for IC50: concentration reducing ABTS radical by 50%, 1 h; for ABTS^•+‐scavenging activity, TEAC: relative to Trolox, 1 h incubation, n.a. = inactive
Protocol: Data are given for 1 h of incubation of compounds with ABTS^•+. The AOA of the compounds was evaluated as Trolox equivalent antioxidant capacity (TEAC values) as the ratio of the slopes of the concentration–response curves, test compound/Trolox. All tests were performed at least in triplicate in three independent experiments. The IC50 values for the test compounds were also determined.

[4] = test system: HEK293T (human embryonic kidney) cells; test: Cytotoxicity, MTT assay, HEK293T; type: cell-based; conditions: HEK-293T, 24 h
[5] = test system: HepG2 cells (human hepatocellular carcinoma); test: Cytotoxicity, MTT assay, HepG2; type: cell-based
[6] = test system: SH‐SY5Y (human neuroblastoma) cells; test: Cytotoxicity, MTT assay, SH-SY5Y; type: cell-based; conditions: 24 h
[7] = cited from earlier work
porcine liver CES [8] = test system: porcine liver CES; parameters: method as in PMID 35322571; conditions: % inhibition at 20 μM; cited from earlier work
[9] = parameters: method as in PMID 35322571; conditions: cited from earlier work
[10] = MTT, mean ± SEM, n = 3, read-out: HEK293T IC50
[11] = HepG2, MTT, 24 h, mean ± SEM, n = 3, read-out: Hep G2 IC50
[12] = MTT, mean ± SEM, n = 3, read-out: SH‐SY5Y IC50

T1 sequence (P22303 32-617 isoform P22303-2 limits assumed): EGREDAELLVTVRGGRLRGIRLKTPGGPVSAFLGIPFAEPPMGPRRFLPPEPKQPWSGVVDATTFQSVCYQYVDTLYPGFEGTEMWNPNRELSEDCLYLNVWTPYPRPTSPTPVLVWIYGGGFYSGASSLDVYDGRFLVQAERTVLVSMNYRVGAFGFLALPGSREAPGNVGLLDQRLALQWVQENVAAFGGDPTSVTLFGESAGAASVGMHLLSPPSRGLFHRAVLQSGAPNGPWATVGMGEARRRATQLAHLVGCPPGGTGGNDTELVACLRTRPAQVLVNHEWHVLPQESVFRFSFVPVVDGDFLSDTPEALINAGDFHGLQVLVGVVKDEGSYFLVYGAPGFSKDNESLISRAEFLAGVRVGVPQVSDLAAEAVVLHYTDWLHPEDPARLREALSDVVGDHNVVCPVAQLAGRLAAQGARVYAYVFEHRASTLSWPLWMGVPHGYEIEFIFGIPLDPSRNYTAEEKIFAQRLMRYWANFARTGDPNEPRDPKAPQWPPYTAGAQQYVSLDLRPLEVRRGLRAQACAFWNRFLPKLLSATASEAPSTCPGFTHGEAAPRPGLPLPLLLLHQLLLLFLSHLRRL

Compound	IC50 (human erythrocyte AChE) [µM]	Selectivity index IC50AChE/IC50BChE (equine serum BChE)	IC50 (equine serum BChE) [µM]	CES inhibition, % (porcine liver CES [1])	Propidium displacement, % [2] [%]	inhibition at 100 µM (β‐amyloid (1–42) (Aβ42)) [%]	IC50 [3] [µM]	ABTS^•+‐scavenging activity, TEAC [3]	IC50 [4, 10] [µM]	IC50 [5, 11] [µM]	IC50 [6, 12] [µM]	further results
Oc1ccccc1C=NCCCCCCCCNc1c2c(nc3c1CCC3)CCCC2 [9c, 2‐[({8‐[(2,3,5,6,7,8‐Hexahydro‐1H‐cyclopenta[b]quinolin‐9‐yl)amino]octyl}imino)methyl]phenol]	1.42 ± 0.14	56.8	0.025 ± 0.001	25.8 ± 0.7%	11.6 ± 0.9	71.7 ± 5.1	29.6 ± 1.2	0.63 ± 0.02	22.2 ± 2.2	95.9 ± 5.4	63.5 ± 4.4	
Oc1ccccc1CNCCCCNc1c2c(nc3c1CCC3)CCCC2 [10a, 2‐[({4‐[(2,3,5,6,7,8‐Hexahydro‐1H‐cyclopenta[b]quinolin‐9‐yl)amino]butyl}amino)methyl]phenol]	2.4 ± 0.15	12.1	0.198 ± 0.019	6.2 ± 0.5%	13.6 ± 0.9	30.5 ± 2.4	10.1 ± 0.5	1.5 ± 0.08	4.49 ± 0.27	27.6 ± 1.3	90.8 ± 1.3	ABTS^•+‐scavenging activity, TEAC ([3]; listed as 10a as): 1.5
Oc1ccccc1CNCCCCCCCCNc1c2c(nc3c1CCC3)CCCC2 [10c, 2‐[({8‐[(2,3,5,6,7,8‐Hexahydro‐1H‐cyclopenta[b]quinolin‐9‐yl)amino]octyl}amino)methyl]phenol]	0.265 ± 0.018	12.0	0.022 ± 0.0002	56.3±0.3 (IC50= 10.5±0.1 µM) %	15.8 ± 1.1	96.7 ± 6.7	10.1 ± 0.6	1.48 ± 0.05	2.33 ± 0.15	4.19 ± 0.2	10.9 ± 0.6	AChE inhibition, times more active than amiridine (human erythrocyte AChE): about 17 times; IC50 (porcine liver CES [1]; porcine liver CES): 10.5 ± 0.1 µM
Cl.Nc1c2c(nc3c1CCC3)CCCC2.O [Amiridine, 9‐amino‐2,3,5,6,7,8‐hexahydro‐1H‐cyclopenta[b]quinoline monohydrochloride monohydrate, reference compound]								0.040 ± 0.003				IC50 ([4]; read-out: HEK293T IC50): 106 ± 3 µM; IC50 ([5]; HepG2, 24 h, read-out: Hep G2 IC50): 224 ± 11.2 µM; IC50 ([6]; read-out: SH‐SY5Y IC50): 135 ± 18.2 µM; pKa of the endocyclic nitrogen atom [7]: 9.52
CCCCCCNC(=O)c1ccccc1O [compound 14, N‐hexylsalicylamide]												CES inhibition, % (porcine liver CES [8]): 4.9 ± 1.0%; ABTS^•+‐scavenging activity, TEAC [9]: 0.39 ± 0.04; IC50 ([9]; read-out: ABTS^•+‐scavenging activity, IC50): 46.5 ± 2.3 µM
